Test results: US20060247320A1, “Compounds for inhibiting KSP kinesin activity” (priority 2005, published 2006)

Each compound was assayed against T1, KSP motor domain (Homo sapiens, UniProt P52732) (assay: biochemical). Details: KSP inhibitory activity, end-point assay; class symbols (Table 1); read-out: IC50.
T1 sequence (P52732 18-359 limits assumed): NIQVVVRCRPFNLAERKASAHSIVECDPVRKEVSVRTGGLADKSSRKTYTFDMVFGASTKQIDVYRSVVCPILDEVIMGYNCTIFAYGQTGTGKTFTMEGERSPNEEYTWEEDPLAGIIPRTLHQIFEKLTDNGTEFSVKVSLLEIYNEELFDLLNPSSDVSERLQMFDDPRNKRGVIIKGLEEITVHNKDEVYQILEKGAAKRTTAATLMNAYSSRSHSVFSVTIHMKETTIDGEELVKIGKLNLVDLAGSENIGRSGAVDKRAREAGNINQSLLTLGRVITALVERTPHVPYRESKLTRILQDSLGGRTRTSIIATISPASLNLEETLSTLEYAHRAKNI

Structure (SMILES) | IC50 [nM]
Cn1cnc(C(=O)Nc2cccc([C@@H](CN)NC(=O)c3cc4cc5c(nc4s3)CC[C@@H](C(C)(C)C)C5)c2)c1 [Example 249] | < 100
Cn1ccnc1C(=O)Nc1cccc([C@@H](CN)NC(=O)c2cc3cc4c(nc3s2)CC[C@@H](C(C)(C)C)C4)c1 [Example 250] | < 100
Cn1cncc1C(=O)Nc1cccc([C@@H](CN)NC(=O)c2cc3cc4c(nc3s2)CC[C@@H](C(C)(C)C)C4)c1 [Example 251] | < 100
CC(C)(C)[C@@H]1CCc2nc3sc(C(=O)N[C@H](CN)c4cccc(NC(=O)c5ccc[nH]5)c4)cc3cc2C1 [Example 252] | < 100
CC(C)(C)[C@@H]1CCc2nc3sc(C(=O)N[C@H](CN)c4cccc(NC(=O)c5nsc(Cl)c5Cl)c4)cc3cc2C1 [Example 253A] | 100 to 1000
CC(C)(C)[C@@H]1CCc2nc3sc(C(=O)N[C@H](CN)c4cccc(NC(=O)c5cnn[nH]5)c4)cc3cc2C1 [Example 253] | 100 to 1000
CC(C)(C)[C@@H]1CCc2nc3sc(C(=O)N[C@H](CN)c4cccc(NC(=O)c5nscc5N)c4)cc3cc2C1 [Example 254] | 100 to 1000
CC(C)(C)[C@@H]1CCc2nc3sc(C(=O)N[C@H](CN)c4cccc(NC(=O)c5nsnc5N)c4)cc3cc2C1 [Example 255] | < 100
CNc1nsnc1C(=O)Nc1cccc([C@@H](CN)NC(=O)c2cc3cc4c(nc3s2)CC[C@@H](C(C)(C)C)C4)c1 [Example 256] | < 100
CC(C)(C)[C@@H]1CCc2nc3sc(C(=O)N[C@H](CN)c4cccc(NC(=O)c5csnn5)c4)cc3cc2C1 [Example 257] | < 100
Cc1nnsc1C(=O)Nc1cccc([C@@H](CN)NC(=O)c2cc3cc4c(nc3s2)CC[C@@H](C(C)(C)C)C4)c1 [Example 258] | < 100
Cc1cnc(C(=O)Nc2cccc([C@@H](CN)NC(=O)c3cc4cc5c(nc4s3)CC[C@@H](C(C)(C)C)C5)c2)cn1 [Example 259] | < 100
CC(C)(C)[C@@H]1CCc2nc3sc(C(=O)N[C@H](CN)c4cccc(NC(=O)c5cncc(N)n5)c4)cc3cc2C1 [Example 260] | < 100
CC(C)(C)[C@@H]1CCc2nc3sc(C(=O)N[C@H](CN)c4cccc(NC(=O)c5nccnc5N)c4)cc3cc2C1 [Example 261] | < 100
CC(C)(C)[C@@H]1CCc2nc3sc(C(=O)N[C@H](CN)c4cccc(NC(=O)c5ccco5)c4)cc3cc2C1 [Example 262, 6-tert-Butyl-5,6,7,8-tetrahydrothieno[2,3-b]quinoline-2-carboxylic acid (2-amino-1-{3-[(furan-2-carbonyl)amino]phenyl}ethyl)amide] | < 100
CC(C)(C)[C@@H]1CCc2nc3sc(C(=O)N[C@H](CN)c4cccc(NC(=O)c5ncco5)c4)cc3cc2C1 [Example 263, 6-tert-butyl-5,6,7,8-tetrahydrothieno[2,3-b]quinoline-2-carboxylic acid (2-amino-1-{3-[(oxazole-2-carbonyl)amino]phenyl}ethyl)amide] | < 100
CC(C)(C)C1CCc2nc3sc(C(=O)NC(CNCCO)c4cccc(NC(=O)c5ccco5)c4)cc3cc2C1 (stereo not drawn) [Example 264, 6-tert-butyl-5,6,7,8-tetrahydrothieno[2,3-b]quinoline-2-carboxylic acid [1-{3-[(furan-2-carbonyl)amino]phenyl}-2-(2-hydroxyethylamino)ethyl]amide] | < 100
CC(C)(C)[C@@H]1CCc2nc3sc(C(=O)N[C@H](CNCCO)c4cccc(NC(=O)c5ncco5)c4)cc3cc2C1 [Example 265, 6-tert-Butyl-5,6,7,8-tetrahydrothieno[2,3-b]quinoline-2-carboxylic acid (2-(2-hydroxy-ethylamino)-1-{3-[(oxazole-2-carbonyl)amino]phenyl}ethyl)amide] | < 100

Same assay, conditions: exact IC50 values, end-point assay (Table 2); read-out: IC50

Structure (SMILES) | IC50 [nM]
Cn1ccnc1C(=O)Nc1cccc([C@@H](CN)NC(=O)c2cc3cc4c(nc3s2)CC[C@@H](C(C)(C)C)C4)c1 [Example 250] | 19
CC(C)(C)[C@@H]1CCc2nc3sc(C(=O)N[C@H](CN)c4cccc(NC(=O)c5csnn5)c4)cc3cc2C1 [Example 257] | 23
Cc1cnc(C(=O)Nc2cccc([C@@H](CN)NC(=O)c3cc4cc5c(nc4s3)CC[C@@H](C(C)(C)C)C5)c2)cn1 [Example 259] | 17
